Experimental data published in ChEMBL document CHEMBL1201862, “PubChem BioAssay data set” (2004).
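How tested: cells in 96-well plates exposed to compound for 48 hours at five concentrations. Abbreviation: GI50, concentration required for 50% inhibition of growth.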 Calls of active or inactive are those of the source. Rule as the data show it: active = GI50 up to about 1.1 µM and inactive = higher.

Key:
Experiment in all cases: DTP human tumour cell line panel, 48 h
T47D = system: T47D
MDA-N = system: MDA-N
M14 = system: M14
NCI-H460 = system: NCI-H460
HCT-116 = system: HCT-116
NCI-H226 = system: NCI-H226
MDA-MB-435 = system: MDA-MB-435
COLO 205 = system: COLO 205
SF-268 = system: SF-268
SF-295 = system: SF-295
NCI-H522 = system: NCI-H522
786-0 = system: 786-0
OVCAR-8 = system: OVCAR-8
RXF 393 = system: RXF 393
SR = system: SR
HCC 2998 = system: HCC 2998
U-251 = system: U-251
KM12 = system: KM12
SNB-19 = system: SNB-19
RPMI-8226 = system: RPMI-8226

SMILES	GI50 (T47D)	GI50 (MDA-N)	GI50 (M14)	GI50 (NCI-H460)	GI50 (HCT-116)	GI50 (NCI-H226)	GI50 (MDA-MB-435)	GI50 (COLO 205)	GI50 (SF-268)	GI50 (SF-295)	GI50 (NCI-H522)	GI50 (786-0)	GI50 (OVCAR-8)	GI50 (RXF 393)	GI50 (SR)	GI50 (HCC 2998)	GI50 (U-251)	GI50 (KM12)	GI50 (SNB-19)	GI50 (RPMI-8226)
O=C1Nc2ccccc2C1=Nc1ccc(S(=O)(=O)Nc2nccs2)cc1	> 100 µM (inactive)	> 100 µM (inactive)	> 100 µM (inactive)	> 100 µM (inactive)	> 100 µM (inactive)	> 100 µM (inactive)	92.5 µM (inactive)	> 100 µM (inactive)	> 100 µM (inactive)	> 100 µM (inactive)	> 100 µM (inactive)	> 100 µM (inactive)	> 100 µM (inactive)	> 100 µM (inactive)	51.8 µM (inactive)	> 100 µM (inactive)	> 100 µM (inactive)	> 100 µM (inactive)	> 100 µM (inactive)	–
NCC1CCN(c2nc3ccccc3c3c2CCCC3)CC1	2.28 µM (inactive)	2.71 µM (inactive)	1.92 µM (inactive)	5.06 µM (inactive)	3.07 µM (inactive)	16.7 µM (inactive)	2.41 µM (inactive)	1.61 µM (inactive)	2.78 µM (inactive)	12.9 µM (inactive)	6.22 µM (inactive)	4.23 µM (inactive)	17.2 µM (inactive)	2.75 µM (inactive)	–	1.9 µM (inactive)	5.35 µM (inactive)	4.28 µM (inactive)	10.4 µM (inactive)	2.31 µM (inactive)
O=C1NC(c2ccccc2)N=C2Oc3ccccc3C=C12 (stereo not drawn)	> 100 µM (inactive)	0.0738 µM (active)	0.194 µM (active)	0.565 µM (active)	0.263 µM (active)	0.579 µM (active)	< 0.0265 µM (active)	0.0731 µM (active)	5.98 µM (inactive)	0.444 µM (active)	0.622 µM (active)	0.281 µM (active)	3.47 µM (inactive)	0.603 µM (active)	–	0.0277 µM (active)	4.21 µM (inactive)	2.62 µM (inactive)	4.61 µM (inactive)	19.3 µM (inactive)
O=C(O)CC(NC(=O)Nc1ccc([N+](=O)[O-])cc1)C(=O)Nc1ccc([N+](=O)[O-])cc1 (stereo not drawn)	> 100 µM (inactive)	> 100 µM (inactive)	> 100 µM (inactive)	> 100 µM (inactive)	> 100 µM (inactive)	> 100 µM (inactive)	> 100 µM (inactive)	> 100 µM (inactive)	9.44 µM (inactive)	> 100 µM (inactive)	> 100 µM (inactive)	> 100 µM (inactive)	> 100 µM (inactive)	> 100 µM (inactive)	–	> 100 µM (inactive)	> 100 µM (inactive)	> 100 µM (inactive)	> 100 µM (inactive)	> 100 µM (inactive)
CC(C)N1CCCOC(c2ccc([N+](=O)[O-])cc2)O1 (stereo not drawn)	> 100 µM (inactive)	> 100 µM (inactive)	> 100 µM (inactive)	> 100 µM (inactive)	> 100 µM (inactive)	> 100 µM (inactive)	> 100 µM (inactive)	> 100 µM (inactive)	> 100 µM (inactive)	> 100 µM (inactive)	> 100 µM (inactive)	> 100 µM (inactive)	> 100 µM (inactive)	> 100 µM (inactive)	> 100 µM (inactive)	> 100 µM (inactive)	> 100 µM (inactive)	> 100 µM (inactive)	> 10 µM (inactive)	–
CCOC(=O)c1cn(CC)c2ccc3ccsc3c2c1=O	> 100 µM (inactive)	> 100 µM (inactive)	> 100 µM (inactive)	> 100 µM (inactive)	> 100 µM (inactive)	> 100 µM (inactive)	> 100 µM (inactive)	> 100 µM (inactive)	> 100 µM (inactive)	> 100 µM (inactive)	> 100 µM (inactive)	> 100 µM (inactive)	> 100 µM (inactive)	> 100 µM (inactive)	–	> 100 µM (inactive)	5.46 µM (inactive)	> 100 µM (inactive)	> 100 µM (inactive)	> 100 µM (inactive)
C(=C\c1ccccc1)/Cn1nc(-c2ccccc2)nc1-c1cnccn1	> 100 µM (inactive)	> 100 µM (inactive)	> 100 µM (inactive)	> 100 µM (inactive)	> 100 µM (inactive)	–	> 100 µM (inactive)	> 100 µM (inactive)	> 100 µM (inactive)	> 100 µM (inactive)	> 100 µM (inactive)	> 100 µM (inactive)	> 100 µM (inactive)	> 100 µM (inactive)	> 100 µM (inactive)	> 100 µM (inactive)	> 100 µM (inactive)	> 10 µM (inactive)	> 100 µM (inactive)	> 100 µM (inactive)
